Experimental data taken from patent US20240174634A1, “Aldehyde Dehydrogenase Inhibitors and Their Therapeutic Use” (priority 2020, published 2024).
pIC50: −log10 of the molar value.

Legend:
ALDH1A1 = target: T1, ALDH1A1 (Homo sapiens, UniProt P00352); assay: Selectivity biochemical assay, NAD(P)H-Glo Detection System
T1 construct: His-tag; made in house; host or cells: E. coli Rosetta (DE3)
T1 sequence (P00352 1-501): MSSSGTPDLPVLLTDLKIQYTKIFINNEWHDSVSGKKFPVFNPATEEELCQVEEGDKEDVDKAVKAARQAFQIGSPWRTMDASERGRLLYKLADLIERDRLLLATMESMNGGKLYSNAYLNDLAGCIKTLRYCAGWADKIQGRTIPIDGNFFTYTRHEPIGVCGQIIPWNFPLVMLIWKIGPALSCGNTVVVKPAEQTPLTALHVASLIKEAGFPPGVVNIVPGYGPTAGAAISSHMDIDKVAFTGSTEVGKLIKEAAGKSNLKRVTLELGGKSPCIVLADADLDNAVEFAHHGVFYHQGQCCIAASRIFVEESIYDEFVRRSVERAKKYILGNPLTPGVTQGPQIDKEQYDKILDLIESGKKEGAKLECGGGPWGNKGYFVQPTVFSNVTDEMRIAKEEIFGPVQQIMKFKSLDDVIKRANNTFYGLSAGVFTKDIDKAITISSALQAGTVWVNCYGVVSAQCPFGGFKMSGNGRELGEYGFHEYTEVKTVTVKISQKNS
Excerpt: (§1) Cloning: Open reading frames corresponding to the protein coding sequences of full length human ALDH1A1 (Uniprot ID P00352), ALDH1A2 (094788) and ALDH1A3 (P47895) were polymerase chain reaction (PCR) amplified from human cDNA and inserted into the multi-cloning sites of the commercially available (Novagen) E. coli expression vectors pET47b (ALDH1A1, EcoRI restriction site; ALDH1A2, BamHI and EcoRI sites) or pET28a (ALDH1A3, NdeI and BamHI sites), using standard molecular genetic techniques. Recombinant DNA products were sequence verified prior to use in expression studies.
(§2) Expression: Expression constructs were transformed into the E. coli strain Rosetta (DE3) (Merck) and individual colonies used to inoculate 10 mL lysogen broth (LB) medium supplemented with kanamycin and chloramphenicol at 50 μg/mL and 34 μg/mL, respectively. Cultures were grown to saturation overnight at 37° C., prior to being used to sub-inoculate fresh 1 L LB medium cultures (plus antibiotics, as before). 1 L cultures were grown at 37° C., 200 rpm, throughout the day until the optical density at 600 nm (OD600) reached ˜0.8, at which point growth temperature was reduced to 18° C. and 1 mM isopropyl β-d-1-thiogalacto pyranoside (IPTG) added to induce protein expression.
(§3) Cultures were left overnight (at least 16 h) under these conditions and the following day harvested by centrifugation (4000 G, 10 minutes). Culture supernatant was discarded and cell pellets stored at −80° C. until further processing.
(§4) Purification: Cell pellets were thawed on ice, re-suspended in Ni Affinity Buffer A (20 mM HEPES pH 7.5, 300 mM NaCl, 20 mM imidazole, 1 mM tris(2-carboxyethyl)phosphine (TCEP)) with protease inhibitors (cOmplete Ultra protease inhibitor, Roche), and lysed by sonication. Lysates were clarified by centrifugation at 18,000 G, 4° C., for 40 minutes, and loaded directly onto a pre-equilibrated (Buffer A) 5 mL HisTrap Fast Flow column (GE Healthcare) by way of an AKTA Fast Protein Liquid Chromatography (FPLC) system. The column was sequentially treated with 6 column volumes (CV) 100% Buffer A, 8 CV of 90% Buffer A:10% Buffer B (20 mM 4-(2-hydroxyethyl)-1-piperazineethanesulfonic acid (HEPES) pH 7.5, 300 mM NaCl, 500 mM imidazole, 1 mM TCEP) and finally a linear gradient from 10-70% Buffer B over 8 CV to elute recombinant His-tagged protein. Relevant fractions (as measured by 280 nm absorbance) collected during elution were pooled and subjected to further purification by size exclusion chromatography (Superdex 200 26/600, GE Healthcare, running buffer 20 mM 2-(carbamoylmethylamino)ethanesulfonic acid (ACES) pH 7.5, 1 mM TCEP). Relevant fractions from this step were pooled, aliquoted, and stored at −80° C. until required for compound profiling assays.
(§5) Materials: ALDH2 was purchased from Abnova. Tris(hydroxymethyl)aminomethane (Tris) was purchased from MP Biomedicals. TCEP, ethylenediaminetetraacetic acid (EDTA), propionaldehyde, DMSO and Tween-20 were purchased from Sigma. Nicotinamide adenine dinucleotide (NAD) was obtained from Abcam. The NAD(P)H-Glo™ Detection System was purchased from Promega. White, non-binding surface, 384 well plates were supplied by Corning (#3574).
(§6) Method: Inhibition of ALDH1A3 was assessed using the NAD(P)H-Glo™ Detection System (Cat. No. G9062) from Promega. This assay detects the production of NADH from NAD by ALDH1A3 via the coupled enzymatic conversion of a proluciferin reductase substrate to generate a luminescent signal. Inhibition of ALDH1A3 by small molecule inhibitors will result in reduction or abrogation of luminescence signal increase above background. Inhibition of ALDH1A1, ALDH1A2 and ALDH2 (selectivity assays) were assessed using the same assay.
(§7) Compounds were dosed into Corning 384 well assay plates using an Echo acoustic dispenser to give 10 point curves in a 3-fold dilution series. Compounds were dispensed from a 20 mM DMSO stock and initially screened at a top concentration of 20 μM (ALDH1A3) or 250 μM (ALDH1A1, ALDH1A2 & ALDH2). […]

ALDH1A2 = target: T2, ALDH1A2 (Homo sapiens, UniProt O94788); assay: as above
T2 construct: His-tag; made in house; host or cells: E. coli Rosetta (DE3)
T2 sequence (O94788 1-518): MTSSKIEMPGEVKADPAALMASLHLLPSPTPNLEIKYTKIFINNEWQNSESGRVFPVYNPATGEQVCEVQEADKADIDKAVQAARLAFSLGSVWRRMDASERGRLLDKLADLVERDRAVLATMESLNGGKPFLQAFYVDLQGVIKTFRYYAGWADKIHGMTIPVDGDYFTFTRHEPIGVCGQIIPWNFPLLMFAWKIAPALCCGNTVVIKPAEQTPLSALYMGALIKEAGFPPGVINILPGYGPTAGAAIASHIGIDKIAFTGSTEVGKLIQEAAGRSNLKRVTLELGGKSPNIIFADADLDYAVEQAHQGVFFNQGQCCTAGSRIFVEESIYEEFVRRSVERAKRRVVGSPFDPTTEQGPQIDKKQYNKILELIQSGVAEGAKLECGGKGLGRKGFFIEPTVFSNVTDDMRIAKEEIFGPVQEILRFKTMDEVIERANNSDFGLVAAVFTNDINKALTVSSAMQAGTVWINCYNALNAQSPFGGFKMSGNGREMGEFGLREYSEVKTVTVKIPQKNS
Excerpt: as §1, §2, §3, §4, §5, §6, §7

Row | SMILES | pIC50 (ALDH1A1) | pIC50 (ALDH1A2)
1 | O=C1CCc2cc(NC(=O)c3sc(N4CCNCC4)nc3-c3cccc(F)c3)ccc2N1 [ALDHI-1005, 4-(3-fluorophenyl)-N-(2-oxo-3,4-dihydro-1H-quinolin-6-yl)-2-piperazin-1-yl-thiazole-5-carboxamide] | ≤ 4.00 | 4.00 to 5.00
2 | O=C1CCc2cc(NC(=O)c3ncsc3-c3cccc(F)c3)ccc2N1 [ALDHI-1014, 5-(3-fluorophenyl)-N-(2-oxo-3,4-dihydro-1H-quinolin-6-yl)thiazole-4-carboxamide] | ≤ 4.00 | 4.00 to 5.00
3 | O=C1CCc2cc(OCCN3CCCCC3c3cccc(F)c3)ccc2N1 (centres unmarked) [ALDHI-2038, 6-[2-[2-(3-fluorophenyl)-1-piperidyl]ethoxy]-3,4-dihydro-1H-quinolin-2-one] | 4.00 to 5.00 | 5.00 to 6.00
4 | O=C1CCc2cc(OCCN3CCC[C@@H]3c3cccc(F)c3)ccc2N1 [ALDHI-2007, 6-[2-[(2R)-2-(3-fluorophenyl)pyrrolidin-1-yl]ethoxy]-3,4-dihydro-1H-quinolin-2-one] | ≤ 4.00 | 6.00 to 7.00
5 | CN(CCOc1ccc2c(c1)CCC(=O)N2)C(CO)c1cccc(F)c1 (centres unmarked) [ALDHI-3003, 6-[2-[[1-(3-fluorophenyl)-2-hydroxy-ethyl]-methyl-amino]ethoxy]-3,4-dihydro-1H-quinolin-2-one] | ≤ 4.00 | 5.00 to 6.00
6 | O=C1CCc2cc(OCCN3CCCC3c3ccc(F)c(F)c3)ccc2N1 (centres unmarked) [ALDHI-2039, 6-[2-[2-(3,4-difluorophenyl)pyrrolidin-1-yl]ethoxy]-3,4-dihydro-1H-quinolin-2-one] | 5.00 to 6.00 | 5.00 to 6.00
7 | O=C1CCc2cc(OCCN3CCCC3c3ccccn3)ccc2N1 (centres unmarked) [ALDHI-2006, 6-[2-[2-(2-pyridyl)pyrrolidin-1-yl]ethoxy]-3,4-dihydro-1H-quinolin-2-one] | ≤ 4.00 | 5.00 to 6.00
8 | O=C1CCc2cc(OCCN3CCCC3c3cccc(F)c3)c(F)cc2N1 (centres unmarked) [ALDHI-2050, 7-fluoro-6-[2-[2-(3-fluorophenyl)pyrrolidin-1-yl]ethoxy]-3,4-dihydro-1H-quinolin-2-one] | ≤ 4.00 | 5.00 to 6.00
9 | O=C1CCc2cc(OCCN(CCO)Cc3cccc(F)c3)ccc2N1 [ALDHI-3002, 6-[2-[(3-fluorophenyl)methyl-(2-hydroxyethyl)amino]ethoxy]-3,4-dihydro-1H-quinolin-2-one] | ≤ 4.00 | 6.00 to 7.00
10 | CCC1Oc2cc(OCCN3CCCC3c3cccc(F)c3)ccc2NC1=O (centres unmarked) [ALDHI-2045, 2-ethyl-7-[2-[2-(3-fluorophenyl)pyrrolidin-1-yl]ethoxy]-4H-1,4-benzoxazin-3-one] | ≤ 4.00 | 5.00 to 6.00
11 | CN(C)c1nc(-c2cccc(F)c2)c(C(=O)Nc2ccc3c(c2)CCC(=O)N3)s1 [ALDHI-1002, 2-(dimethylamino)-4-(3-fluorophenyl)-N-(2-oxo-3,4-dihydro-1H-quinolin-6-yl)thiazole-5-carboxamide] | ≤ 4.00 | 5.00 to 6.00
12 | Cc1nc(C2CCCN2CCOc2ccc3c(c2)CCC(=O)N3)cs1 (centres unmarked) [ALDHI-2033, 6-[2-[2-(2-methylthiazol-4-yl)pyrrolidin-1-yl]ethoxy]-3,4-dihydro-1H-quinolin-2-one] | ≤ 4.00 | ≤ 4.00
13 | O=c1ccc2cc(OCCN3CCCC3c3cccc(F)c3)ccc2[nH]1 (centres unmarked) [ALDHI-2022, 6-[2-[2-(3-fluorophenyl)pyrrolidin-1-yl]ethoxy]-1H-quinolin-2-one] | ≤ 4.00 | 5.00 to 6.00
14 | CN(CCOc1ccc2c(c1)CCC(=O)N2)C(=O)c1cccc(F)c1 [ALDHI-3008, 3-fluoro-N-methyl-N-[2-[(2-oxo-3,4-dihydro-1H-quinolin-6-yl)oxy]ethyl]benzamide] | ≤ 4.00 | 5.00 to 6.00
15 | Cc1cccc(C2CCCN2CCOc2ccc3c(c2)CCC(=O)N3)c1 (centres unmarked) [ALDHI-2011, 6-[2-[2-(m-tolyl)pyrrolidin-1-yl]ethoxy]-3,4-dihydro-1H-quinolin-2-one] | ≤ 4.00 | 4.00 to 5.00
16 | Cc1ccc(C2CCCN2CCOc2ccc3c(c2)CCC(=O)N3)cc1 (centres unmarked) [ALDHI-2010, 6-[2-[2-(p-tolyl)pyrrolidin-1-yl]ethoxy]-3,4-dihydro-1H-quinolin-2-one] | ≤ 4.00 | ≤ 4.00
17 | O=C1CCc2cc(OCCN3CC(F)CC3c3cccc(F)c3)ccc2N1 (centres unmarked) [ALDHI-2052, 6-[2-[4-fluoro-2-(3-fluorophenyl)pyrrolidin-1-yl]ethoxy]-3,4-dihydro-1H-quinolin-2-one] | ≤ 4.00 | 6.00 to 7.00
18 | O=C1CCc2cc(OCCN3CCCC3c3ccccc3)ccc2N1 (centres unmarked) [ALDHI-2019, 6-[2-(2-phenylpyrrolidin-1-yl)ethoxy]-3,4-dihydro-1H-quinolin-2-one] | ≤ 4.00 | 6.00 to 7.00
19 | CC1(C)Oc2cc(OCCN3CCCC3c3cccc(F)c3)ccc2NC1=O (centres unmarked) [ALDHI-2043, 7-[2-[2-(3-fluorophenyl)pyrrolidin-1-yl]ethoxy]-2,2-dimethyl-4H-1,4-benzoxazin-3-one] | ≤ 4.00 | 5.00 to 6.00
20 | O=C1COc2cc(NC(=O)c3scnc3-c3cccc(F)c3)ccc2N1 [ALDHI-1016, 4-(3-fluorophenyl)-N-(3-oxo-4H-1,4-benzoxazin-7-yl)thiazole-5-carboxamide] | ≤ 4.00 | 5.00 to 6.00
21 | CN(CCOc1ccc2c(c1)CCC(=O)N2)Cc1cccc(F)c1 [ALDHI-3001, 6-[2-[(3-fluorophenyl)methyl-methyl-amino]ethoxy]-3,4-dihydro-1H-quinolin-2-one] | ≤ 4.00 | 5.00 to 6.00
22 | CN(CCOc1ccc2c(c1)CCC(=O)N2)C(=O)c1cccnc1 [ALDHI-3013, N-methyl-N-[2-[(2-oxo-3,4-dihydro-1H-quinolin-6-yl)oxy]ethyl]pyridine-3-carboxamide] | ≤ 4.00 | ≤ 4.00
